Assay results taken from US7947852B2, “Naphthalene compounds, a process for their preparation and pharmaceutical compositions containing them” (Les Laboratoires Servier, priority 2007, dated 2011).

Key:
MT2 receptor = target: T1, MT2 receptor (Homo sapiens, UniProt P49286); assay: Melatonin MT2 receptor binding study; conditions: 2-[125I]-iodomelatonin radioligand, competitive binding
T1 sequence (P49286 1-362): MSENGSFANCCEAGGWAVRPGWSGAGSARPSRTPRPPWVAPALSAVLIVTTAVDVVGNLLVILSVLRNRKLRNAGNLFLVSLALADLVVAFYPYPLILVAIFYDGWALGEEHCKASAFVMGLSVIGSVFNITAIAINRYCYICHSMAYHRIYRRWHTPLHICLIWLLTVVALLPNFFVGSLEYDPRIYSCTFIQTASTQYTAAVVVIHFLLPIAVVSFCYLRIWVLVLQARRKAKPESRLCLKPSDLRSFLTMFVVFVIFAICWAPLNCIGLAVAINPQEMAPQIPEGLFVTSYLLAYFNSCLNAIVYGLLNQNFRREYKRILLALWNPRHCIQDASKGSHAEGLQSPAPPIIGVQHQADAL
Procedure: (§1) The MT1 or MT2 receptor binding experiments are carried out using 2-[^125I]-iodomelatonin as reference radioligand. The radioactivity retained is determined using a liquid scintillation counter.
(§2) Competitive binding experiments are then carried out in triplicate using the various test compounds. A range of different concentrations is tested for each compound. The results enable the binding affinities of the compounds tested (Ki) to be determined.

MT1 receptor = MT1 receptor (Homo sapiens, UniProt P48039); assay: Melatonin MT1 receptor binding study; conditions: 2-[125I]-iodomelatonin radioligand, competitive binding
Procedure: as §1, §2

MT1 receptor, sequence (P48039 whole entry): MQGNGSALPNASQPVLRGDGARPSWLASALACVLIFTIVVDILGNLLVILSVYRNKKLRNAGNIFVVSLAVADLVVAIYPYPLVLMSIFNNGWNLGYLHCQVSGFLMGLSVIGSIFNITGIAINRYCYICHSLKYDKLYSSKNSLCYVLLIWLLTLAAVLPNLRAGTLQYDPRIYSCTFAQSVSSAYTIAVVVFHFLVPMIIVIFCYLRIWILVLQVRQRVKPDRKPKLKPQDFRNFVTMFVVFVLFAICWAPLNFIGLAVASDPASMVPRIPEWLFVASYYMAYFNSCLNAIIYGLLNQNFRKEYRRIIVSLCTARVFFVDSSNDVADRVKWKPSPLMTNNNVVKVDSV

- Ki (MT2 receptor): 0.8 nM
- Ki (MT1 receptor): 7 nM
Compound: COc1ccc2cccc(/C(CNC(C)=O)=N\O)c2c1 [Example 2, N-[(2E)-2-(Hydroxyimino)-2-(7-methoxy-1-naphthyl)ethyl]acetamide]
